Measurements: ChEMBL document CHEMBL6103589, “Synthesis and evaluation of novel ebselen derivatives as urease inhibitors for combating Helicobacter pylori infections” (Eur J Med Chem, 2025)
≈ marks a conversion by molar mass, not a printed value. Calls of active or inactive are those of the source. No cut-off for these calls is given here.

What was measured:
[1] = biological target: Urease subunit alpha/Urease subunit beta (Helicobacter pylori (strain ATCC 700392 / 26695) (Campylobacterpylori), UniProt P69996); test: Inhibition of Helicobacter pylori ATCC 43504 urease preincubated for 75 mins followed by urea addition and measured after 30 mins by ELISA; type: protein-complex assay
Helicobacter pylori [2] = test: Antibacterial activity against Helicobacter pylori ATCC 43504 incubated for 24 hrs by broth dilution method; type: functional; conditions: dose 1-64 […]
Helicobacter pylori [3] = test: Protection against Helicobacter pylori ATCC 43504 infected (MOI 400:1) in human GES1 cell injury model assessed as reduction in cell apoptosis rate at 25 uM pre-treated for 2 hrs followed by bacterial infection measured after 6 hrs by Annexin/V-FITC staining based flow cytometry analysis (reference value: 56.03%); type: functional; parameters: scale not given: the % may be the effect or the level left; conditions: time 8 hrs
Helicobacter pylori [4] = test: Protection against Helicobacter pylori ATCC 43504 infected (MOI 400:1) in human GES1 cell injury model assessed as reduction in cell apoptosis rate at 50 uM pre-treated for 2 hrs followed by bacterial infection measured after 6 hrs by Annexin/V-FITC staining based flow cytometry analysis (reference value: 56.03%); type: functional; parameters: scale not given: the % may be the effect or the level left; conditions: time 8 hrs
Helicobacter pylori [5] = test: Protection against Helicobacter pylori ATCC 43504 infected (MOI 25:1) in human GES1 cell injury model assessed as necrotic cells at 25 uM pre-treated for 2 hrs followed by bacterial infection measured after 6 hrs by Annexin/V-FITC staining based flow cytometry analysis (reference value: 0.66%); type: functional; conditions: time 8 hrs
Helicobacter pylori [6] = test: Protection against Helicobacter pylori ATCC 43504 infected (MOI 100:1) in human GES1 cell injury model assessed as viable cells followed by bacterial infection at 25 uM pre-treated for 2 hrs measured after 6 hrs by Annexin/V-FITC staining based flow cytometry analysis (reference value: 68.36%); type: functional; conditions: time 8 hrs
Helicobacter pylori [7] = test: Protection against Helicobacter pylori ATCC 43504 infected (MOI 100:1) in human GES1 cell injury model assessed as necrotic cells at 50 uM pre-treated for 2 hrs followed by bacterial infection measured after 6 hrs by Annexin/V-FITC staining based flow cytometry analysis (reference value: 2.82%); type: functional; conditions: time 8 hrs
Helicobacter pylori [8] = test: Protection against Helicobacter pylori ATCC 43504 infected (MOI 200:1) in human GES1 cell injury model assessed as late apoptotic cells at 25 uM pre-treated for 2 hrs followed by bacterial infection measured after 6 hrs by Annexin/V-FITC staining based flow cytometry analysis (reference value: 6.28%); type: functional; conditions: time 8 hrs
Helicobacter pylori [9] = test: Protection against Helicobacter pylori ATCC 43504 infected (MOI 200:1) in human GES1 cell injury model assessed as necrotic cells at 25 uM pre-treated for 2 hrs followed by bacterial infection measured after 6 hrs by Annexin/V-FITC staining based flow cytometry analysis (reference value: 3.92%); type: functional; conditions: time 8 hrs
Helicobacter pylori [10] = test: Protection against Helicobacter pylori ATCC 43504 infected (MOI 200:1) in human GES1 cell injury model assessed as necrotic cells at 50 uM pre-treated for 2 hrs followed by bacterial infection measured after 6 hrs by Annexin/V-FITC staining based flow cytometry analysis (reference value: 3.92%); type: functional; conditions: time 8 hrs
Helicobacter pylori [11] = test: Protection against Helicobacter pylori ATCC 43504 infected (MOI 300:1) in human GES1 cell injury model assessed as viable cells at 25 uM pre-treated for 2 hrs followed by bacterial infection measured after 6 hrs by Annexin/V-FITC staining based flow cytometry analysis (reference value: 47.43%); type: functional; conditions: time 8 hrs
Helicobacter pylori [12] = test: Protection against Helicobacter pylori ATCC 43504 infected (MOI 300:1) in human GES1 cell injury model assessed as late apoptotic cells at 50 uM pre-treated for 2 hrs followed by bacterial infection measured after 6 hrs by Annexin/V-FITC staining based flow cytometry analysis (reference value: 11.95%); type: functional; conditions: time 8 hrs
Helicobacter pylori [13] = test: Protection against Helicobacter pylori ATCC 43504 infected (MOI 400:1) in human GES1 cell injury model assessed as late apoptotic cells at 25 uM pre-treated for 2 hrs followed by bacterial infection measured after 6 hrs by Annexin/V-FITC staining based flow cytometry analysis (reference value: 13.62%); type: functional; conditions: time 8 hrs
Helicobacter pylori [14] = test: Protection against Helicobacter pylori ATCC 43504 infected (MOI 400:1) in human GES1 cell injury model assessed as necrotic cells at 25 uM pre-treated for 2 hrs followed by bacterial infection measured after 6 hrs by Annexin/V-FITC staining based flow cytometry analysis (reference value: 6.36%); type: functional; conditions: time 8 hrs
Helicobacter pylori [15] = test: Protection against Helicobacter pylori ATCC 43504 infected (MOI 400:1) in human GES1 cell injury model assessed as late apoptotic cells at 50 uM pre-treated for 2 hrs followed by bacterial infection measured after 6 hrs by Annexin/V-FITC staining based flow cytometry analysis (reference value: 13.62%); type: functional; conditions: time 8 hrs
Helicobacter pylori [16] = test: Protection against Helicobacter pylori ATCC 43504 infected (MOI 400:1) in human GES1 cell injury model assessed as necrotic cells at 50 uM pre-treated for 2 hrs followed by bacterial infection measured after 6 hrs by Annexin/V-FITC staining based flow cytometry analysis (reference value: 6.36%); type: functional; conditions: time 8 hrs
GES1 [17] = test: Induction of DNA damage in human GES1 cells infected (25 to 400:1 MOI) with Helicobacter pylori ATCC 43504 assessed as increase in gammaH2AX levels at 25 to 50 uM by SP8 laser confocal microscopic analysis; type: functional, cell-based; conditions: dose 25-50 µM
GES1 [18] = test: Induction of DNA damage in human GES1 cells infected (25 to 400:1 MOI) with Helicobacter pylori ATCC 43504 assessed as decrease in gammaH2AX levels at 50 uM by SP8 laser confocal microscopic analysis; type: functional, cell-based; conditions: time 20.0 min
Helicobacter pylori [19] = test: In vivo protection against Helicobacter pylori ATCC 43504 infected in BALB/c mouse gastric mucosa model assessed as appearance of intact lamina propria at high dose administered once a day for 2 weeks by HE staining based analysis; type: functional, organism-based
Helicobacter pylori [20] = test: In vivo protection against Helicobacter pylori ATCC 43504 infected in BALB/c mouse gastric mucosa model assessed as appearance of intact muscularis mucosa at high dose administered once a day for 2 weeks by HE staining based analysis; type: functional, organism-based
Helicobacter pylori [21] = test: In vivo protection against Helicobacter pylori ATCC 43504 infected in BALB/c mouse gastric mucosa model assessed as effect on hyperplasia at low dose administered once a day for 2 weeks by HE staining based analysis; type: functional, organism-based
[22] = Acute toxicity in BALB/c mouse assessed as pathological abnormality in spleen at 1 g/Kg, po single dose administered for 7 days by HE staining based analysis; type: organism-based; conditions: in vivo, 1000 mg/kg, 168 h, time 7 day
[23] = Acute toxicity in BALB/c mouse assessed as change in body weight at 1 g/Kg, po single dose administered for 7 days; type: organism-based; conditions: in vivo, 1000 mg/kg, 168 h, time 7 day
[24] = Acute toxicity in BALB/c mouse assessed as change in stool consistency at 1 g/Kg, po single dose administered for 7 days; type: organism-based; conditions: in vivo, 1000 mg/kg, 168 h, time 7 day
[25] = Acute toxicity in BALB/c mouse assessed as pathological abnormality in liver at 1 g/Kg, po single dose administered for 7 days by HE staining based analysis; type: organism-based; conditions: in vivo, 1000 mg/kg, 168 h, time 7 day
[26] = Acute toxicity in BALB/c mouse assessed as pathological abnormality in lungs at 1 g/Kg, po single dose administered for 7 days by HE staining based analysis; type: organism-based; conditions: in vivo, 1000 mg/kg, 168 h, time 7 day
[27] = Acute toxicity in BALB/c mouse assessed as pathological abnormality in kidney at 1 g/Kg, po single dose administered for 7 days by HE staining based analysis; type: organism-based; conditions: in vivo, 1000 mg/kg, 168 h, time 7 day

Urease subunit alpha/Urease subunit beta, sequence (P69996 whole entry): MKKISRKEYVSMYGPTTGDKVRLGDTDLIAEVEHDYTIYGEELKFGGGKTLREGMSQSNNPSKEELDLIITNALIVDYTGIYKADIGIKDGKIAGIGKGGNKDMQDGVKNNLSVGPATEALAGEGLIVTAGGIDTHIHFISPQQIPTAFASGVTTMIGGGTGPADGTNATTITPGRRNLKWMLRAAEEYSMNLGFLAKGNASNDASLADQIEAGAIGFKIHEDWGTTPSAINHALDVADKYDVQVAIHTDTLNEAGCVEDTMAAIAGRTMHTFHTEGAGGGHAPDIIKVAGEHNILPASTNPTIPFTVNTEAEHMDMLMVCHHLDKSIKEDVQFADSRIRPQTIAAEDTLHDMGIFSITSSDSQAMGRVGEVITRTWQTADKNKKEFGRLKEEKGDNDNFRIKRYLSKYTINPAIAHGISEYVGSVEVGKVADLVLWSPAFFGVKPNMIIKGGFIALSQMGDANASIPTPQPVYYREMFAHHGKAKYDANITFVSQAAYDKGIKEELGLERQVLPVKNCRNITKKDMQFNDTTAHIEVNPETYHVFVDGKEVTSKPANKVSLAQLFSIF
Urease subunit alpha/Urease subunit beta, sequence (P14916 whole entry, further chain): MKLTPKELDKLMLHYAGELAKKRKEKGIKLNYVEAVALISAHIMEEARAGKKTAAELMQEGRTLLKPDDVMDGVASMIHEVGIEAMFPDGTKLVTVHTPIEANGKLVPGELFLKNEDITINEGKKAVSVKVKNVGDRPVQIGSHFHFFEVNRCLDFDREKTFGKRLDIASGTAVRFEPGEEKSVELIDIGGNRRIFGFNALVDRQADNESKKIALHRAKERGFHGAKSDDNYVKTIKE

**Q.** Which IC50 [1] does the source give for `O=C(Oc1n[se]c2ccccc12)c1cccc(F)c1` here?
**A.** 140 nM

**Q.** And the Activity (Helicobacter pylori [2])?
**A.** Dose-dependent-effect

**Q.** What about the MIC (Helicobacter pylori [2]) of the same molecule?
**A.** 8 µg/mL (≈ 25 µM)

**Q.** What about the Activity (Helicobacter pylori [3]) of the same molecule?
**A.** 38.48%

**Q.** And the Activity (Helicobacter pylori [4])?
**A.** 47.7%

**Q.** What about the Activity (Helicobacter pylori [5]) of the same molecule?
**A.** 0.02%

**Q.** And the Activity (Helicobacter pylori [6])?
**A.** 91.76%

**Q.** And the Activity (Helicobacter pylori [7])?
**A.** 0.16%

**Q.** And the Activity (Helicobacter pylori [8])?
**A.** 0.02%

**Q.** And the Activity (Helicobacter pylori [9])?
**A.** 0.12%

**Q.** And the Activity (Helicobacter pylori [10])?
**A.** 0.8%

**Q.** What about the Activity (Helicobacter pylori [11]) of the same molecule?
**A.** 83.86%

**Q.** And the Activity (Helicobacter pylori [12])?
**A.** 2.53%

**Q.** What about the Activity (Helicobacter pylori [13]) of the same molecule?
**A.** 0.32%

**Q.** And the Activity (Helicobacter pylori [14])?
**A.** 0.32%

**Q.** And the Activity (Helicobacter pylori [15])?
**A.** 0.72%

**Q.** What about the Activity (Helicobacter pylori [16]) of the same molecule?
**A.** 2.26%

**Q.** What about the Activity (GES1 [17]) of the same molecule?
**A.** Active

**Q.** And the Activity (GES1 [18])?
**A.** Active

**Q.** And the Activity (Helicobacter pylori [19])?
**A.** Active

**Q.** And the Activity (Helicobacter pylori [20])?
**A.** Active

**Q.** And the Activity (Helicobacter pylori [21])?
**A.** inactive

**Q.** And the Activity [22]?
**A.** Non-toxic

**Q.** What about the Activity [23] of the same molecule?
**A.** Non-toxic

**Q.** What about the Activity [24] of the same molecule?
**A.** Non-toxic

**Q.** And the Activity [25]?
**A.** Non-toxic

**Q.** And the Activity [26]?
**A.** Non-toxic

**Q.** What about the Activity [27] of the same molecule?
**A.** Non-toxic
